{"source": "patent US9833497B2", "about": "“Human originated EGF domain proteins and use of the same” (CHENGDU SOURCEBIO LIMITED-LIABILITY COMPANY, priority 2013, dated 2017)", "type_in_all_cases": "cell-based", "key": {"Moraxella catarrhalis": {"tested_on": "Moraxella catarrhalis", "test": "MIC against Gram-negative bacteria: Moraxella catarrhalis", "settings": "5×10^5 CFU/mL", "outline": "(§1)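 MIC = lowest concentration of recombinant protein showing no growth. Test proteins: purified human-derived EGF domain proteins, two-fold dilution series, three wells per concentration; inoculum 5×10^5 CFU/mL in LB; incubation 37° C with shaking at 175 rpm.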"}, "Aeromonas hydrophila": {"tested_on": "Aeromonas hydrophila", "test": "MIC against Gram-negative bacteria: Aeromonas hydrophila", "settings": "5×10^5 CFU/mL", "outline": "as §1"}, "Klebsiella pneumonia": {"tested_on": "Klebsiella pneumonia", "test": "MIC against Gram-negative bacteria: Klebsiella pneumonia", "settings": "5×10^5 CFU/mL", "outline": "as §1"}, "Proteus mirabilis": {"tested_on": "Proteus mirabilis", "test": "MIC against Gram-negative bacteria: Proteus mirabilis", "settings": "5×10^5 CFU/mL", "outline": "as §1"}, "E. coli BL21": {"tested_on": "E. coli BL21", "test": "MIC against Gram-negative bacteria: E. coli BL21", "settings": "5×10^5 CFU/mL", "outline": "as §1"}, "E. coli DH5α": {"tested_on": "E. coli DH5α", "test": "Antibacterial activity: MIC and growth curve against E. coli DH5α in 96-well plate", "settings": "minimal inhibitory concentration against E. coli DH5α; 96-well plate, 5×10^5 CFU/mL, 37° C., judged after 8 h", "outline": "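Log-phase DH5α (OD600 about 0.5, 37° C, 185 rpm in LB) was pelleted, resuspended in fresh LB and seeded at 5×10^5 CFU/mL with recombinant protein at 50, 25 and 12.5 μg/mL (two-fold series), in triplicate. Plates were shaken at 175 rpm, 37° C, and OD600 was read every 30 min. MIC was the lowest concentration with no growth.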"}, "Enterobacter cloacae": {"tested_on": "Enterobacter cloacae", "test": "MIC against Gram-negative bacteria: Enterobacter cloacae", "settings": "5×10^5 CFU/mL", "outline": "as §1"}, "Pseudomonas aeruginosa": {"tested_on": "Pseudomonas aeruginosa", "test": "MIC against Gram-negative bacteria: Pseudomonas aeruginosa", "settings": "5×10^5 CFU/mL", "outline": "as §1"}, "Citrobacter diversus": {"tested_on": "Citrobacter diversus", "test": "MIC against Gram-negative bacteria: Citrobacter diversus", "settings": "5×10^5 CFU/mL", "outline": "as §1"}, "Proteus vulgaris": {"tested_on": "Proteus vulgaris", "test": "MIC against Gram-negative bacteria: Proteus vulgaris", "settings": "5×10^5 CFU/mL", "outline": "as §1"}, "Serratia marcescens": {"tested_on": "Serratia marcescens", "test": "MIC against Gram-negative bacteria: Serratia marcescens", "settings": "5×10^5 CFU/mL", "outline": "as §1"}, "[1]": {"settings": "10 h cultivation at 37° C., two-fold serial dilution"}}, "data": [{"substance": "PRT444 (GISECSSQPCQNGGTCVEGVNQYRCICPPGRTGNRCQ; listed as Homo sapiens)", "values": [{"measurement": "MIC against M. catarrhalis", "setting": "Moraxella catarrhalis; 96-well plate, 37° C., 10 h", "value": 50, "unit": "µg/mL"}, {"measurement": "MIC against A. hydrophila", "setting": "Aeromonas hydrophila; 96-well plate, 37° C., 10 h", "value": 50, "unit": "µg/mL"}, {"measurement": "MIC against K. pneumonia", "setting": "Klebsiella pneumonia; 96-well plate, 37° C., 10 h", "value": 50, "unit": "µg/mL"}, {"measurement": "MIC against P. mirabilis", "setting": "Proteus mirabilis; 96-well plate, 37° C., 10 h", "value": 12.5, "unit": "µg/mL"}, {"measurement": "MIC against E. coli BL21", "setting": "E. coli BL21; 96-well plate, 37° C., 10 h", "value": 12.5, "unit": "µg/mL"}, {"measurement": "MIC", "setting": "E. coli DH5α", "value": 25, "unit": "µg/mL"}, {"measurement": "MIC against E. cloacae", "setting": "Enterobacter cloacae; 96-well plate, 37° C., 10 h", "value": 12.5, "unit": "µg/mL"}, {"measurement": "MIC against P. aeruginosa", "setting": "Pseudomonas aeruginosa; 96-well plate, 37° C., 10 h", "value": 25, "unit": "µg/mL"}, {"measurement": "MIC against C. diversus", "setting": "Citrobacter diversus; 96-well plate, 37° C., 10 h", "value": 12.5, "unit": "µg/mL"}, {"measurement": "MIC against P. vulgaris", "setting": "Proteus vulgaris; 96-well plate, 37° C., 10 h", "value": 50, "unit": "µg/mL"}, {"measurement": "MIC against S. marcescens", "setting": "Serratia marcescens; 96-well plate, 37° C., 10 h", "value": 12.5, "unit": "µg/mL"}]}, {"substance": "PRT1287 (EPCRKLYCLHGICQPNATPGPMCHCEAGWVGLHCD; listed as Homo sapiens)", "values": [{"measurement": "MIC against M. catarrhalis", "setting": "Moraxella catarrhalis; Moraxella catarrhalis, 96-well plate, 37° C., 10 h", "value": 50, "unit": "µg/mL"}, {"measurement": "MIC against A. hydrophila", "setting": "Aeromonas hydrophila; Aeromonas hydrophila, 96-well plate, 37° C., 10 h", "value": 50, "unit": "µg/mL"}, {"measurement": "MIC against K. pneumonia", "setting": "Klebsiella pneumonia; Klebsiella pneumonia, 96-well plate, 37° C., 10 h", "value": 50, "unit": "µg/mL"}, {"measurement": "MIC against P. mirabilis", "setting": "Proteus mirabilis; Proteus mirabilis, 96-well plate, 37° C., 10 h", "value": 12.5, "unit": "µg/mL"}, {"measurement": "MIC against E. coli BL21", "setting": "E. coli BL21; E. coli BL21, 96-well plate, 37° C., 10 h", "value": 25, "unit": "µg/mL"}, {"measurement": "MIC", "setting": "E. coli DH5α", "value": 50, "unit": "µg/mL"}, {"measurement": "MIC against E. cloacae", "setting": "Enterobacter cloacae; Enterobacter cloacae, 96-well plate, 37° C., 10 h", "value": 12.5, "unit": "µg/mL"}, {"measurement": "MIC against P. aeruginosa", "setting": "Pseudomonas aeruginosa; Pseudomonas aeruginosa, 96-well plate, 37° C., 10 h", "value": 12.5, "unit": "µg/mL"}, {"measurement": "MIC against C. diversus", "setting": "Citrobacter diversus; Citrobacter diversus, 96-well plate, 37° C., 10 h", "value": 12.5, "unit": "µg/mL"}, {"measurement": "MIC against P. vulgaris", "setting": "Proteus vulgaris; Proteus vulgaris, 96-well plate, 37° C., 10 h", "value": 50, "unit": "µg/mL"}, {"measurement": "MIC against S. marcescens", "setting": "Serratia marcescens; Serratia marcescens, 96-well plate, 37° C., 10 h", "value": 50, "unit": "µg/mL"}]}, {"substance": "PRT1097 (NIDECFSNPCIHGNCSDRVAAYHCTCEPGYTGVNCE; listed as Homo sapiens)", "values": [{"measurement": "MIC M. catarrhalis", "setting": "Moraxella catarrhalis; [1]", "value": 100, "unit": "µg/mL"}, {"measurement": "MIC A. hydrophila", "setting": "Aeromonas hydrophila; [1]", "value": 12.5, "unit": "µg/mL"}, {"measurement": "MIC K. pneumonia", "setting": "Klebsiella pneumonia; [1]", "value": 12.5, "unit": "µg/mL"}, {"measurement": "MIC P. mirabilis", "setting": "Proteus mirabilis; [1]", "value": 25, "unit": "µg/mL"}, {"measurement": "MIC E. coli BL21", "setting": "E. coli BL21; [1]", "value": 12.5, "unit": "µg/mL"}, {"measurement": "MIC", "setting": "E. coli DH5α", "value": 25, "unit": "µg/mL"}, {"measurement": "MIC E. cloacae", "setting": "Enterobacter cloacae; [1]", "value": 25, "unit": "µg/mL"}, {"measurement": "MIC P. aeruginosa", "setting": "Pseudomonas aeruginosa; [1]", "value": 25, "unit": "µg/mL"}, {"measurement": "MIC C. diversus", "setting": "Citrobacter diversus; [1]", "value": 25, "unit": "µg/mL"}, {"measurement": "MIC P. vulgaris", "setting": "Proteus vulgaris; [1]", "value": 12.5, "unit": "µg/mL"}, {"measurement": "MIC S. marcescens", "setting": "Serratia marcescens; [1]", "value": 25, "unit": "µg/mL"}]}, {"substance": "PRT630 (CQCSGNVDPNAVGNCDPLSGHCLRCLHNTTGDHCEHCQEGFYGSALAPRPADKCMP; listed as Homo sapiens)", "values": [{"measurement": "MIC M. catarrhalis", "setting": "Moraxella catarrhalis; 96-well plate, 37° C., 10 h", "value": 25, "unit": "µg/mL"}, {"measurement": "MIC A. hydrophila", "setting": "Aeromonas hydrophila; 96-well plate, 37° C., 10 h", "value": 25, "unit": "µg/mL"}, {"measurement": "MIC K. pneumonia", "setting": "Klebsiella pneumonia; 96-well plate, 37° C., 10 h", "value": 25, "unit": "µg/mL"}, {"measurement": "MIC P. mirabilis", "setting": "Proteus mirabilis; 96-well plate, 37° C., 10 h", "value": 12.5, "unit": "µg/mL"}, {"measurement": "MIC E. coli BL21", "setting": "E. coli BL21; 96-well plate, 37° C., 10 h", "value": 25, "unit": "µg/mL"}, {"measurement": "MIC", "setting": "E. coli DH5α", "value": 50, "unit": "µg/mL"}, {"measurement": "MIC E. cloacae", "setting": "Enterobacter cloacae; 96-well plate, 37° C., 10 h", "value": 12.5, "unit": "µg/mL"}, {"measurement": "MIC P. aeruginosa", "setting": "Pseudomonas aeruginosa; 96-well plate, 37° C., 10 h", "value": 12.5, "unit": "µg/mL"}, {"measurement": "MIC C. diversus", "setting": "Citrobacter diversus; 96-well plate, 37° C., 10 h", "value": 12.5, "unit": "µg/mL"}, {"measurement": "MIC P. vulgaris", "setting": "Proteus vulgaris; 96-well plate, 37° C., 10 h", "value": 25, "unit": "µg/mL"}, {"measurement": "MIC S. marcescens", "setting": "Serratia marcescens; 96-well plate, 37° C., 10 h", "value": 12.5, "unit": "µg/mL"}]}, {"substance": "PRT171 (CDPSPCKNGGSCTDLENSYSCTCPPGFYGKIC; listed as Homo sapiens)", "values": [{"measurement": "MIC (μg/mL) M. catarrhalis", "setting": "Moraxella catarrhalis; M. catarrhalis, 10 h cultivation at 37° C.", "value": 12.5, "unit": "µg/mL"}, {"measurement": "MIC (μg/mL) A. hydrophila", "setting": "Aeromonas hydrophila; A. hydrophila, 10 h cultivation at 37° C.", "value": 50, "unit": "µg/mL"}, {"measurement": "MIC (μg/mL) K. pneumonia", "setting": "Klebsiella pneumonia; K. pneumonia, 10 h cultivation at 37° C.", "value": 12.5, "unit": "µg/mL"}, {"measurement": "MIC (μg/mL) P. mirabilis", "setting": "Proteus mirabilis; P. mirabilis, 10 h cultivation at 37° C.", "value": 25, "unit": "µg/mL"}, {"measurement": "MIC (μg/mL) E. coli BL21", "setting": "E. coli BL21; E. coli BL21, 10 h cultivation at 37° C.", "value": 50, "unit": "µg/mL"}, {"measurement": "MIC", "setting": "E. coli DH5α", "value": 25, "unit": "µg/mL"}, {"measurement": "MIC (μg/mL) E. cloacae", "setting": "Enterobacter cloacae; E. cloacae, 10 h cultivation at 37° C.", "value": 25, "unit": "µg/mL"}, {"measurement": "MIC (μg/mL) P. aeruginosa", "setting": "Pseudomonas aeruginosa; P. aeruginosa, 10 h cultivation at 37° C.", "value": 25, "unit": "µg/mL"}, {"measurement": "MIC (μg/mL) C. diversus", "setting": "Citrobacter diversus; C. diversus, 10 h cultivation at 37° C.", "value": 25, "unit": "µg/mL"}, {"measurement": "MIC (μg/mL) P. vulgaris", "setting": "Proteus vulgaris; P. vulgaris, 10 h cultivation at 37° C.", "value": 50, "unit": "µg/mL"}, {"measurement": "MIC (μg/mL) S. marcescens", "setting": "Serratia marcescens; S. marcescens, 10 h cultivation at 37° C.", "value": 25, "unit": "µg/mL"}]}]}
